Laboratory results published in patent publication US11439609B2, “Nitric oxide releasing PLGA microspheres for biomedical applications” (THE REGENTS OF THE UNIVERSITY OF MICHIGAN, priority 2015, dated 2022).

Assay: Morphology and size distribution by SEM
Assay type: physicochemical
Conditions: cryomilled at −196° C.
Description: For morphology and size distribution analysis, microspheres were coated with 40 nm of gold using a sputter coater (Desk II, Denton Vacuum Inc., Hill, N.J., USA) for 120 seconds. Secondary electron micrographs were taken by a Hitachi S-3200N Variable Pressure SEM (Hitachi High-Technologies Corp., Tokyo, Japan). The applied accelerating voltage was 15 kV. For size distribution measurements, the diameter of at least 500 particles was measured and analyzed with ImageJ software (see, e.g., C. A. Schneider, W. S. Rasband, K. W. Eliceiri, NIH Image to ImageJ: 25 years of image analysis, Nature Methods. 9 (2012) 671-675). For cross-sectional images, the microspheres were cut using a razor-blade on a glass slide prior to coating with gold for the SEM analysis.

particle dimensions after micronization: < 25 μm
Compound: CC(=O)N[C@@H](C(=O)O)C(C)(C)SN=O [SNAP, S-nitroso-N-acetyl-D-penicillamine]
